Experimental findings from the supplement of paper PMC5722580 are described below.

The subject of one test is KAI3. Description: drug sensitivity score (viability inhibition); higher = more sensitive. Conditions: 72 h; IL2 2.5 ng/ml. As to the method: (§1)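 NK-cell leukemia/lymphoma cell lines (3,000 cells/well) were cultured with IL2 2.5 ng/ml in 384-well drug plates (5-8 concentrations over a 10,000-fold range) for 72 h at 37 C; viability was read with CellTiter-Glo. DSS is a normalised area under the dose-response curve; the experiment was repeated twice.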

Another test concerns KHYG-1. The test is described as above. Conditions: 72 h; IL2 2.5 ng/ml. As to the method: as §1
For another test, the system named is NK-92. Described as above. Conditions: 72 h; IL2 2.5 ng/ml. As to the method: as §1
The subject of another test is NK-YS. The test is described as above. Conditions: 72 h; IL2 2.5 ng/ml. As to the method: as §1
In the next test the test system is NKL. Described as above. Conditions: 72 h; IL2 2.5 ng/ml. As to the method:
as §1

The next test deals with SNK6. Described as above. Conditions: 72 h; IL2 2.5 ng/ml. As to the method:
as §1

A further test relates to YT. The test is described as above. Conditions: 72 h; IL2 2.5 ng/ml. As to the method:
as §1

For the next test, the system named is HEK293-SIE STAT3 WT. Briefly: drug sensitivity score (inhibition of STAT3 luciferase reporter); higher = stronger inhibition. Conditions: 6 h; STAT3: WT; IL6 100 ng/ml. As to the method:
(§2)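 HEK293 cells with a STAT3-inducible (SIE) luciferase reporter, stably expressing WT STAT3 (IL6 100 ng/ml) or Y640F STAT3 (no IL6), were incubated 6 h with drugs in 384-well plates (5-8 concentrations over a 10,000-fold range); luciferase was read with ONE-Glo. DSS is a normalised area under the dose-response curve; values are the mean of two experiments.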

The next test relates to HEK293-SIE STAT3 Y640F. Described as above. Conditions: 6 h; IL6 0 ng/ml. As to the method:
as §2

Regarding `C[C@@H]1C=C2C(=O)O[C@@H]3CC[C@H](C1)[C@]23O` [Galiellalactone], the drug sensitivity score in the test on KAI3 was 5 DSS; in the test with KHYG-1 it was 4.09 DSS; with NK-92 it was 3.98 DSS; in the test with NK-YS it was 3.55 DSS; with NKL it was 1.09 DSS; with SNK6, 6.92 DSS. The drug sensitivity score in the test on YT worked out at 1.84 DSS; in the test on HEK293-SIE STAT3 WT, 0 DSS; in the test with HEK293-SIE STAT3 Y640F, 0 DSS.
Regarding `CC1(C)CCC(c2ccc(Cl)cc2)=C(CN2CCN(c3ccc(C(=O)NS(=O)(=O)c4ccc(N[C@H](CCN5CCOCC5)CSc5ccccc5)c(S(=O)(=O)C(F)(F)F)c4)cc3)CC2)C1` [Navitoclax], the drug sensitivity score in the test on KAI3 was 39.8 DSS; in the test with KHYG-1, 25.9 DSS; with NK-92, 14.2 DSS; in the test on NK-YS it was 27.6 DSS; in the test with NKL it was 22.4 DSS; with SNK6, 39.1 DSS. The drug sensitivity score in the test on YT was 23.3 DSS; in the test on HEK293-SIE STAT3 WT, 0 DSS; in the test on HEK293-SIE STAT3 Y640F, 0.5 DSS.
Consider `CN[C@@H]1C[C@H]2O[C@@](C)([C@@H]1OC)n1c3ccccc3c3c4c(c5c6ccccc6n2c5c31)C(=O)N[C@H]4O` [UCN-01], for which the drug sensitivity score in the test on KAI3 was determined as 29.8 DSS; with KHYG-1 it was 30.7 DSS; in the test on NK-92, 27.3 DSS; with NK-YS, 28.7 DSS; with NKL, 26.9 DSS; in the test with SNK6 it was 30.1 DSS. In addition, the drug sensitivity score in the test on YT came out at 20.5 DSS; in the test with HEK293-SIE STAT3 WT, 22.9 DSS; in the test with HEK293-SIE STAT3 Y640F, 20.3 DSS.
Turning to `CNC(=O)c1cc(Oc2ccc(NC(=O)Nc3ccc(Cl)c(C(F)(F)F)c3)cc2)ccn1` [Sorafenib], the drug sensitivity score was 0 DSS in the test on KAI3; 0.013 DSS with KHYG-1; 0.365 DSS with NK-92; 0.00415 DSS with NK-YS; 0 DSS in the test with NKL; 4.36 DSS in the test on SNK6. Besides, the drug sensitivity score with YT is 0 DSS; with HEK293-SIE STAT3 WT it was 2.1 DSS; in the test with HEK293-SIE STAT3 Y640F it was 1.6 DSS.
For the compound `CC(=O)c1c(C)c2cnc(Nc3ccc(N4CCNCC4)cn3)nc2n(C2CCCC2)c1=O` [Palbociclib], the drug sensitivity score with KAI3 was found to be 3.02 DSS; with KHYG-1, 15.5 DSS; with NK-92, 5.78 DSS; in the test with NK-YS it was 6.84 DSS; in the test with NKL it was 9.52 DSS; in the test with SNK6 it was 0 DSS. Besides, the drug sensitivity score with YT came to 5.11 DSS; in the test on HEK293-SIE STAT3 WT, 4.85 DSS; in the test on HEK293-SIE STAT3 Y640F, 2.8 DSS.
On to `COc1cc(Nc2ncc(F)c(Nc3ccc4c(n3)NC(=O)C(C)(C)O4)n2)cc(OC)c1OC` [Tamatinib], for which the drug sensitivity score in the test with KAI3 is 10.5 DSS; in the test on KHYG-1, 8.19 DSS; with NK-92, 5.27 DSS; in the test with NK-YS, 2.57 DSS; in the test on NKL it was 7.75 DSS; in the test with SNK6, 6.98 DSS. Moreover, the drug sensitivity score in the test with YT stood at 2.87 DSS; in the test on HEK293-SIE STAT3 WT it was 8.6 DSS; in the test with HEK293-SIE STAT3 Y640F, 0 DSS.
Regarding `CC(C)(C)c1cnc(CSc2cnc(NC(=O)C3CCNCC3)s2)o1` [SNS-032], the drug sensitivity score with KAI3 is 21.1 DSS; in the test on KHYG-1 it was 20.5 DSS; in the test with NK-92, 19.2 DSS; with NK-YS, 30.3 DSS; in the test on NKL, 29.4 DSS; in the test with SNK6 it was 10.5 DSS. The drug sensitivity score in the test on YT was found to be 26.1 DSS; in the test with HEK293-SIE STAT3 WT, 21.8 DSS; in the test with HEK293-SIE STAT3 Y640F it was 18.9 DSS.
With `COc1ncc(-c2ccc3nccc(-c4ccnnc4)c3c2)cc1NS(=O)(=O)c1ccc(F)cc1F` [Omipalisib], the drug sensitivity score in the test on KAI3 came out at 6.45 DSS; with KHYG-1, 9.27 DSS; with NK-92, 11.6 DSS; in the test with NK-YS it was 12.1 DSS; in the test on NKL, 11.3 DSS; in the test with SNK6, 5.15 DSS. The figures for the drug sensitivity score in the test with YT, in the test on HEK293-SIE STAT3 WT and in the test with HEK293-SIE STAT3 Y640F were 10.9 DSS, 5.9 DSS and 8.15 DSS, respectively.
For `CN(C)C[C@@H]1CCn2cc(c3ccccc32)C2=C(C(=O)NC2=O)c2cn(c3ccccc23)CCO1` [Ruboxistaurin], the drug sensitivity score worked out at 4.46 DSS in the test on KAI3; 9.45 DSS in the test on KHYG-1; 4.64 DSS with NK-92; 8.41 DSS with NK-YS; 7.79 DSS in the test on NKL; 4.54 DSS in the test on SNK6. Moreover, the drug sensitivity score is 4.62 DSS in the test on YT, 3.95 DSS in the test with HEK293-SIE STAT3 WT and 0.3 DSS in the test on HEK293-SIE STAT3 Y640F.
Regarding `COc1c(C)cnc(Cn2cnc3c(Cl)nc(N)nc32)c1C` [BIIB021], the drug sensitivity score is 26 DSS in the test with KAI3; 26.4 DSS in the test with KHYG-1; 23 DSS in the test on NK-92; 24.7 DSS in the test with NK-YS; 21.9 DSS with NKL; 25.4 DSS with SNK6. Further, the drug sensitivity score with YT amounted to 22.2 DSS; in the test with HEK293-SIE STAT3 WT, 15.3 DSS; in the test on HEK293-SIE STAT3 Y640F, 9.85 DSS.
On to `COC(=O)C[C@](O)(CCCC(C)(C)O)C(=O)O[C@@H]1C(OC)=C[C@]23CCCN2CCc2cc4c(cc2[C@H]13)OCO4` [homoharringtonine], for which the drug sensitivity score with KAI3 is 33.4 DSS; in the test on KHYG-1, 29.6 DSS; with NK-92, 31.2 DSS; with NK-YS it was 32.5 DSS; in the test on NKL, 32.2 DSS; in the test with SNK6, 34.6 DSS. Further, the drug sensitivity score with YT stood at 34.5 DSS; in the test with HEK293-SIE STAT3 WT, 39 DSS; in the test on HEK293-SIE STAT3 Y640F it was 36.6 DSS.
As to `O=[N+]([O-])c1ccc2c(c1)S(=O)(=O)C=C2` [Stattic], the drug sensitivity score with KAI3 is 14.3 DSS; with KHYG-1, 13.3 DSS; in the test with NK-92, 13.2 DSS; with NK-YS, 12.4 DSS; in the test with NKL, 10.7 DSS; in the test on SNK6 it was 14.1 DSS. Moreover, the drug sensitivity score in the test with YT was found to be 14.6 DSS; in the test with HEK293-SIE STAT3 WT, 8.32 DSS; with HEK293-SIE STAT3 Y640F, 7.37 DSS.
Turning to `CCN(CC)CCOc1ccc(C(=C(Cl)c2ccccc2)c2ccccc2)cc1` [Clomifene], the drug sensitivity score with KAI3 came out at 5.61 DSS; with KHYG-1, 5.07 DSS; with NK-92, 5.49 DSS; in the test on NK-YS, 2.67 DSS; in the test with NKL it was 4.4 DSS; with SNK6, 5.13 DSS. Also, the drug sensitivity score worked out at 4.23 DSS with YT, 1.9 DSS with HEK293-SIE STAT3 WT and 0 DSS in the test on HEK293-SIE STAT3 Y640F.
As to `CC(=O)OC[C@H]1O[C@@H]([S-])[C@H](OC(C)=O)[C@@H](OC(C)=O)[C@@H]1OC(C)=O.CCP(CC)CC.[Au+]` [Auranofin], the drug sensitivity score was determined as 2.72 DSS with KAI3; 5.84 DSS in the test on KHYG-1; 4.86 DSS in the test with NK-92; 8.08 DSS in the test on NK-YS; 8.44 DSS in the test with NKL; 8.28 DSS with SNK6. Also, the drug sensitivity score in the test with YT is 8.63 DSS; in the test on HEK293-SIE STAT3 WT it was 5.9 DSS; with HEK293-SIE STAT3 Y640F, 2.05 DSS.
`CN(Cc1cnc2nc(N)nc(N)c2n1)c1ccc(C(=O)N[C@@H](CCC(=O)O)C(=O)O)cc1` [Methotrexate]: the drug sensitivity score with KAI3 was 12.8 DSS; in the test with KHYG-1 it was 15.1 DSS; in the test with NK-92, 12.2 DSS; in the test with NK-YS it was 18.8 DSS; in the test with NKL, 8.04 DSS; in the test on SNK6, 21.2 DSS. The drug sensitivity score in the test on YT amounted to 15.8 DSS; in the test on HEK293-SIE STAT3 WT, 1.4 DSS; in the test with HEK293-SIE STAT3 Y640F it was 0.233 DSS.
As for `N#CCNC(=O)c1ccc(-c2ccnc(Nc3ccc(N4CCOCC4)cc3)n2)cc1` [Momelotinib], the drug sensitivity score in the test on KAI3 turned out to be 13.9 DSS; with KHYG-1, 18.9 DSS; in the test on NK-92 it was 10.1 DSS; with NK-YS, 10.8 DSS; with NKL, 15.9 DSS; in the test with SNK6, 8.25 DSS. The drug sensitivity score came out at 8.12 DSS in the test with YT, 24.2 DSS in the test on HEK293-SIE STAT3 WT and 12.4 DSS in the test on HEK293-SIE STAT3 Y640F.
Take `Cc1cc(Nc2cc(CN3CCOCC3)c3nc(C)c(Cc4ccc(Cl)cc4F)n3n2)n[nH]1` [Gandotinib]: the results for the drug sensitivity score with HEK293-SIE STAT3 WT and in the test with HEK293-SIE STAT3 Y640F were 24 DSS and 8.4 DSS, respectively.
